Measured values published in patent publication US9999611B2, “SIRT 1 activator including syringaresinol” (AMOREPACIFIC CORPORATION, priority 2011, dated 2018).

Experiments:
[1] = tested on: aged retinal cells (ARPE-19); experiment: Mitochondrial function recovering effect in aged retinal cells: energy (ATP) production; format: cell-based, human; conditions: compared to cells treated only with DMSO, FIG. 16
Method: The aging of retinal cells was induced while treating with 50 or 100 μM syringaresinol or with DMSO as a negative control, in substantially the same manner as in Test Example 7. For evaluation of mitochondrial function recovering effect, the level of energy (ATP) and reactive oxygen species production in retinal cells was investigated. The energy production was determined by recovering the aged cells after washing with PBS and then with hot water and measuring luminescence using the ATP determination kit (Molecular Probes, Eugene, Oreg., USA) and the Tecan system (Infinite M200, Tecan, Austria). The reactive oxygen species production was measured using a flow cytometer (BD Biosciences, San Jose, Calif., USA) after washing the aged cells with PBS and staining them with the reactive oxygen species detection reagent (H2DCFDA, Invitrogen, Carlsbad, Calif., USA).

[2] = tested on: IL-1b, IL-6. iNOS, COX2, MMP9 and CCR2; experiment: Inhibition of expression of inflammation-related genes in LPS-treated human PBMCs; format: cell-based; conditions: human PBMCs pretreated with 50 μM, then 10 ng/mL LPS; compared to cells treated only with LPS; FIG. 19
Method: After pretreating human PBMCs with 50 μM syringaresinol, inflammatory response was induced by treating with 10 ng/mL LPS, in substantially the same manner as in Test Example 11. The cells treated with each sample were washed with PBS and RNA and cDNA were extracted and synthesized therefrom. Then, the expression pattern of the inflammatory response-related genes IL-1b, IL-6. iNOS, COX2, MMP9 and CCR2 was monitored using the synthesized cDNA and predesigned primers.

SIRT1 = SIRT1 expression promoting effect in human PBMCs (qRT-PCR); format: cell-based; conditions: human PBMCs, 20, 50 or 100 μM, 24 hours; FIG. 17
Method: The SIRT1 gene expression promoting effect of syringaresinol in human PBMCs was evaluated as follows.
Human PBMCs were purchased from Zen-Bio (Research Triangle Park, N.C., USA) and cultured in a 5% CO2 incubator using a PBMC medium (Zen-Bio) until 80% confluency. Then, the cells were treated for 24 hours with syringaresinol dissolved in DMSO to a concentration of 20, 50 or 100 μM. A negative control group was treated with DMSO corresponding to 1/1000 of the volume of the culture medium. The cells treated with each sample were washed with PBS and RNA was extracted therefrom using the TRIzol reagent (Invitrogen). Then, cDNA was synthesized from the extracted RNA (5 μg) using a reverse transcription system (Fermentas, Glen Burnie, Md., USA). The expression pattern of the SIRT1 and GAPDH genes was monitored by qRT-PCR using the synthesized cDNA and predesigned primers and probes. qRT-PCR reaction and analysis were carried out using the Rotor-Gene 3000 system (Corbett Research, Sydney, Australia).

human PBMCs = experiment: Human PBMC migration and deposition onto 3T3-L1 adipocytes (TNF-induced); format: cell-based; conditions: human PBMCs, 20, 50 or 100 μM, 10 ng/mL TNF, differentiated 3T3-L1 adipocytes, 48 hours; FIG. 20
Method: After treating human PBMCs with 20, 50 or 100 μM syringaresinol or DMSO in substantially the same manner as in Test Example 11, inflammatory response was induced by treating with 10 ng/mL TNF. After treating differentiated 3T3-L1 adipocytes (Zen-Bio) with the PBMCs, it was investigated whether the PBMCs migrate onto the adipocytes and deposit. 48 hours later, after removing the PBMCs remaining without migrating, the cells were detached from a culture dish using trypsin/EDTA and then counted using a cell counter.

PGC-1α = PGC-1α mRNA expression promoting effect (qRT-PCR); format: cell-based, human; conditions: 50 μM, vs DMSO control, FIG. 12
Method: Human adipocytes, hepatocytes and myocytes were treated with 50 μM syringaresinol in substantially the same manner as in Test Example 3 and washed with PBS. Then, RNA and cDNA were sequentially extracted therefrom. The mRNA expression of the energy metabolism-related genes PGC-1α and PGC-1β was analyzed by qRT-PCR. A result of comparing the expression of PGC-1α and PGC-1β with a control group treated only with DMSO is shown in FIG. 12 and FIG. 13, respectively.

[3] = tested on: PGC-1α and PGC-1β, IL-10 and arginase I; experiment: Change in human PBMC type: expression of type 2 immune cell-related genes; format: cell-based; conditions: human PBMCs, 20, 50 or 100 μM, vs DMSO; FIG. 21
Method: After treating human PBMCs with 20, 50 or 100 μM syringaresinol or DMSO in substantially the same manner as in Test Example 11, RNA was extracted from the PBMCs and cDNA was synthesized therefrom in order to measure the expression of type 2 immune cell-related genes. The expression pattern of the transcriptional regulators necessary for inducement of differentiation to type 2 immune cells, such as PGC-1α and PGC-1β, and the genes mainly expressed in type 2 immune cells, such as IL-10 and arginase I, was measured using the synthesized cDNA.

ACO, CPT1, mCAD = experiment: Expression of fatty acid oxidation-related genes (qRT-PCR); format: cell-based, human; conditions: 50 μM, vs DMSO control
Method: Human adipocytes, hepatocytes and myocytes were treated with 50 μM syringaresinol and washed with PBS in substantially the same manner as in Test Example 3. RNA was extracted from the cells and cDNA was synthesized therefrom. The change in expression pattern of fatty acid synthesis-related genes such as ADD1/SREBP1c, ACC, FAS, etc. and fatty acid oxidation-related genes such as ACO, CPT1, mCAD, etc. was measured by qRT-PCR.

What does the source list for `COc1cc(C2OCC3C(c4cc(OC)c(O)c(OC)c4)OCC23)cc(OC)c1O` (stereo not drawn) [syringaresinol]?
increased energy (ATP) production ([1]; 50 μM): about 21%; increased energy (ATP) production ([1]; 100 μM): ~33%; decreased expression of the inflammatory response-related genes [2]: about 90%; SIRT1 expression (SIRT1): increased SIRT1 expression in PBMCs in a concentration-dependent manner; inhibition of migration and deposition of PBMCs onto adipocytes (human PBMCs): about 50%; expression of PGC-1α (PGC-1α; human adipocytes): increased the expression; expression of PGC-1α (PGC-1α; human hepatocytes): increased the expression; expression of PGC-1α (PGC-1α; human myocytes): increased the expression; expression of type 2 immune cell-specific marker genes [3]: significantly increased expression; expression of fatty acid oxidation promoting genes (ACO, CPT1, mCAD; human adipocytes, FIG. 8): increased the expression of fatty acid oxidation promoting genes; expression of fatty acid oxidation promoting genes (ACO, CPT1, mCAD; human hepatocytes, FIG. 9): increased the expression of fatty acid oxidation promoting genes; expression of fatty acid oxidation promoting genes (ACO, CPT1, mCAD; human myocytes, FIG. 10): increased the expression of fatty acid oxidation promoting genes
